Experimental data: patent US9175007B2, “IRAK inhibitors and uses thereof” (Nimbus Iris, Inc., priority 2013, dated 2015)

Experiments:
IRAK4 = biological target: T1, IRAK4 (Homo sapiens, UniProt Q9NWZ3); test: IRAK-4 activity inhibition assay (Caliper); format: biochemical; conditions: 3.5 nM IRAK4, 37 μM ATP, 1.5 μM Peptide 8
T1 construct: purchased CARNA Bioscience 09-145
T1 sequence (Q9NWZ3 1-460): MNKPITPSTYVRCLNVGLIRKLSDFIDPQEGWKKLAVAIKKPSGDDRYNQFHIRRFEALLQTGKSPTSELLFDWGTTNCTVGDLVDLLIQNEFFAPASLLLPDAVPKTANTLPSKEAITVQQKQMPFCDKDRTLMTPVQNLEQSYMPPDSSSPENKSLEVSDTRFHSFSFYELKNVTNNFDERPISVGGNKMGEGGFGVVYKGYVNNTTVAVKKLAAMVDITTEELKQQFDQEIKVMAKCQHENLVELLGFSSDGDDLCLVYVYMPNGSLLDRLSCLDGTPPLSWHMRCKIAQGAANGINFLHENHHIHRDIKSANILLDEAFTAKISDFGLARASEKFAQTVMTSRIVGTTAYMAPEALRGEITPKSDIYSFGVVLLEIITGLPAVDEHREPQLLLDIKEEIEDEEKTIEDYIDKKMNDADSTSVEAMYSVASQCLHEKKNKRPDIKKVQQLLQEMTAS
Protocol: A 1× kinase base buffer was prepared from 50 mM HEPES, pH 7.5 and 0.0015% Brij-35. A stop buffer was prepared from 100 mM HEPES, pH 7.5, 0.015% Brij-35, 0.2% Coating Reagent #3, and 50 mM EDTA.
Test compound was diluted to 50× of the final desired highest inhibitor concentration in reaction by 100% DMSO. 100 ul of this compound dilution was transferred to a well in a 96-well plate.
Test compound was serially diluted by transferring 30 μl to 60 μl of 100% DMSO in the next well and so forth for a total of 10 concentrations. 100 μl of 100% DMSO was added to two empty wells for no compound control and no enzyme control in the same 96-well plate.
A new 96-well plate was marked as intermediate plate. 5 μl of compound serial dilution was transferred from source plate to the corresponding wells of the intermediate plate. 45 μl of 1× kinase base buffer (KB buffer) was added to each well of the intermediate plate. The intermediate plate was placed for 10 min on a shaker.
5 μl of each well was transferred from the 96-well intermediate plate to a 384-well plate in duplicates. For example, A1 of the 96-well plate is transferred to A1 and A2 of the 384-well plate. A2 of the 96-well plate is transferred to A3 and A4 of the 384-well plate, and so on.
IRAK4 and DTT in 1× kinase base buffer was added. The 2.5× enzyme mix contained 8.8 nM IRAK4 and 5 mM DTT.
Peptide 8, ATP, MgCl2 and MnCl2 were added in the 1× kinase base buffer. The 2.5× peptide mix contained 3.75 μM peptide 8, 92.5 μM ATP, 12.5 mM MgCl2 and 2.5 mM MnCl2.
Assay plate already contained 5 μl of compound in 10% DMSO. Added 10 μl of 2.5× enzyme solution to each well of the 384-well assay plate, except no enzyme control wells. The final concentration of IRAK4 in reaction was 3.5 nM. Added 10 μl of 1× kinase base buffer to no enzyme control wells in the assay plate. Incubated at room temperature for 10 min.
Added 10 μl of 2.5× peptide solution to each well of the 384-well assay plate. The final concentration of Peptide 8 and ATP was 1.5 μM and 37 μM, respectively. Incubated at 28° C. for 40 minutes. Added 25 μl of stop buffer to stop reaction. Collected data on Caliper.
Copied conversion % data from Caliper program. Converted conversion % values to percent inhibition values. Percent inhibition=(max-conversion %)/(max-min)*100, where “max” means the conversion % of DMSO control and “min” means the conversion % of no enzyme control.

[1] = tested on: TNF-α production in whole blood; test: In vitro R848-induced TNF-α production in whole blood; format: cell-based; conditions: Homo sapiens, R848 1 uM
[2] = tested on: IL8 production in THP-1 cells; test: LPS induced IL8 production assay in THP-1 cells; format: cell-based; conditions: Homo sapiens, 300 ng/mL LPS
Protocol: (§1) Provided compounds were also assayed in an LPS (Lipopolysacharide) or R848 (TLR-7 agonist) induced cytokine (TNFα and IL8) production assay in THP-1 cells, human peripheral blood mononuclear cells (hPBMC), and whole blood. The exemplary protocol for this assay in THP-1 cells was as follows below.
(§2) THP-1 cells from ATCC (TIB-202) were cultured in RPMI Medium 1640 (Invitrogen, Cat No. A10491-01), 10% fetal bovine serum (Invitrogen, Cat No. 10099141, Lot No. 8172882) containing 100 U/mL Penicillin, 100 μg/mL streptomycin (Invitrogen, Cat No. 15140-122), and 50 uM 2-Mercaptoethanol (Invitrogen, Cat No. 21985023). LPS-EK ultra pure (Invivogen, Cat No. tlrl-peklps) was used to induce IL8 and TNFα production, that was detected in the cell culture supernatant by IL8 HTRF kit (Cisbio, Cat No. 62IL8PEB) and TNFα HTRF kit (Cisbio, Cat No. 62TNFPEB), as per manufacturer instructions. Cells were cultured in 96 well assay plates at 100,000 cells per well, and compounds diluted in final 0.3% DMSO were pre-incubated with cells for 1 hour prior to stimulation with 300 ng/mL LPS. Cytokine production in cell supernatant was measured at 5 hours for TNFα and IL8 production, and for 16 hours for IL8 production and assessment of cell viability.

[3] = tested on: TNFα production in THP-1 cells; test: LPS induced TNFα production assay in THP-1 cells; format: cell-based; conditions: Homo sapiens, 300 ng/mL LPS
Protocol: as §1, §2

Which results are given for `Cn1cc(Nc2nc(O[C@H]3CC[C@H](N(C)C)CC3)c3c4c(sc3n2)CC[C@@H]4CC(N)=O)cn1` [Compound I-22, 2-[(3R)-12-[[4-(dimethylamino)cyclohexyl]oxy]-10-[(1-methyl-1H-pyrazol-4-yl)amino]-7-thia-9,11-diazatricyclo[6.4.0.0[2,6]]dodeca-1(8),2(6),9,11-tetraen-3-yl]acetamide]?
IC50 (IRAK4): ≤ 5 µM; IC50 [1]: ≥ 1 µM

`Cn1cc(Nc2nc(O[C@H]3CC[C@H](N4CCOCC4)CC3)c3c4c(sc3n2)CC[C@@H]4CC(N)=O)cn1` [Compound I-25] was tested. Which IC50 (IRAK4) did it give?
The IC50 was no more than 5 µM.

And the IC50 [1]?
The IC50 was no less than 1 µM.

Which results are given for `CN(C)[C@H]1CC[C@H](Nc2nc(Nc3ccccc3)nc3sc4c(c23)CCC4)CC1` [Compound I-75, 12-N-[4-(dimethylamino)cyclohexyl]-10-N-phenyl-7-thia-9,11-diazatricyclo[6.4.0.0[2,6]]dodeca-1(8),2(6),9,11-tetraene-10,12-diamine]?
IC50 [2]: 1 to 5 µM; IC50 (IRAK4): ≤ 5 µM; IC50 [3]: 1 to 5 µM

For `c1nscc1Nc1nc(N[C@H]2CC[C@H](N3CCOCC3)CC2)c2c3c(sc2n1)CCC3` [Compound I-76], which IC50 [2] is on record?
The IC50 was no more than 0.5 µM.

And the IC50 (IRAK4)?
Its IC50 is no more than 5 µM.

And the IC50 [3]?
The IC50 was no more than 0.5 µM.

Which IC50 [2] does the source give for `c1nocc1Nc1nc(N[C@H]2CC[C@H](N3CCOCC3)CC2)c2c3c(sc2n1)CCC3` [Compound I-77] here?
The IC50 was no more than 0.5 µM.

What about the IC50 (IRAK4) of the same compound?
The IC50 was no more than 5 µM.

What about the IC50 [3] of the same compound?
Its IC50 is no more than 0.5 µM.
